The source of these data is patent US9969742B2, “Imidazotriazinone compounds” (Ironwood Pharmaceuticals, Inc., priority 2012, dated 2018).

Holding throughout (assay type): biochemical
The target of assay [1] is T1, PDE1A (Homo sapiens, UniProt P54750).
T1 construct: purchased Reaction Biology Corporation, Malvern, Pa
As to the kind of experiment: Phosphodiesterase enzyme screening assay, PDE1A. The essentials:
(§1)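 Compounds were tested on commercial human PDE enzymes using a fluorescent cGMP substrate at 4.0 μM, incubated for one hour at room temperature. Values are means of four wells versus controls.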

Assay [2] has as its target T2, PDE1B (Homo sapiens, UniProt Q01064).
T2 construct: purchased Reaction Biology Corporation, Malvern, Pa
Description: Phosphodiesterase enzyme screening assay, PDE1B. A digest of the protocol:
as §1

The target of assay [3] is T3, PDE9A2 (Homo sapiens, UniProt O76083).
T3 construct: purchased Reaction Biology Corporation, Malvern, Pa
T3 sequence (O76083 1-533 isoform O76083-2): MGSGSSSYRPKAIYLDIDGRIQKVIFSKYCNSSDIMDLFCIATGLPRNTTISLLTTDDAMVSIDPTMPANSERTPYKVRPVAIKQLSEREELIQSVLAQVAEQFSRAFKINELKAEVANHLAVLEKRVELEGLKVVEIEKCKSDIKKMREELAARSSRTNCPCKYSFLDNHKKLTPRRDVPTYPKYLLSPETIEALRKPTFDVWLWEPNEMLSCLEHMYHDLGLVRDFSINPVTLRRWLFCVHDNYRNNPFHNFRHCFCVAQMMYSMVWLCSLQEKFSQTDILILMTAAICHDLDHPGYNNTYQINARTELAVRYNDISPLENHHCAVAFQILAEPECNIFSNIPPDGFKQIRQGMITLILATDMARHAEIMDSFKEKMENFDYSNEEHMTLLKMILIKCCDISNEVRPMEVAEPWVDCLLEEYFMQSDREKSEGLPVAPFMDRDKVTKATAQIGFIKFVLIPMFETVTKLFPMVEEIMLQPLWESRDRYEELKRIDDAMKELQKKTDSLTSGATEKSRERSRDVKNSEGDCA
Description: Phosphodiesterase enzyme screening assay, PDE9A2. The essentials: as §1

Where [4] appears, read: ratio of IC50 values, PDE1A versus PDE9A2, value greater than 1 = greater selectivity for PDE9A2.
Setting [5] is: ratio of IC50 values, PDE1B versus PDE9A2, value greater than 1 = greater selectivity for PDE9A2.
Where [6] appears, read: Table 3, 4.0 μM cGMP substrate, 1 hour at R.T., read-out: Band (PDE9A2 IC50).
The mark [7] stands for this setting: ratio of IC50 values PDE1A / PDE9A2, value greater than 1 = greater selectivity for PDE9A2.
The mark [8] stands for this setting: ratio of IC50 values PDE1B / PDE9A2, value greater than 1 = greater selectivity for PDE9A2.
Setting [9] is: 4.0 μM cGMP substrate, 1 hour at R.T., read-out: Band (PDE9A2 IC50).
[10] abbreviates: Table 2, ratio of IC50 values, value greater than 1 indicates greater selectivity for PDE9A2.
Setting [11] is: Table 2, 10 concentrations, 4.0 μM cGMP substrate, 1 hour at R.T., read-out: Band (PDE9A2 IC50).
Where [12] appears, read: ratio of IC50 values, value greater than 1 indicates greater selectivity for PDE9A2.
The mark [13] stands for this setting: Table 1, ratio of IC50 values, value greater than 1 indicates greater selectivity for PDE9A2.
Setting [14] is: Table 1, 10 concentrations, 4.0 μM cGMP substrate, 1 hour at R.T., read-out: Band (PDE9A2 IC50).
Setting [15] is: ratio of IC50 values, PDE1A versus PDE9A2, value greater than 1 indicates greater selectivity for PDE9A2.
The mark [16] stands for this setting: ratio of IC50 values, PDE1B versus PDE9A2, value greater than 1 indicates greater selectivity for PDE9A2.

Molecules are shown by their SMILES. Like-named read-outs stand apart in the source and are kept apart here. Where only a bound is given, the exact number is not on record here.

T2 sequence (Q01064 whole entry): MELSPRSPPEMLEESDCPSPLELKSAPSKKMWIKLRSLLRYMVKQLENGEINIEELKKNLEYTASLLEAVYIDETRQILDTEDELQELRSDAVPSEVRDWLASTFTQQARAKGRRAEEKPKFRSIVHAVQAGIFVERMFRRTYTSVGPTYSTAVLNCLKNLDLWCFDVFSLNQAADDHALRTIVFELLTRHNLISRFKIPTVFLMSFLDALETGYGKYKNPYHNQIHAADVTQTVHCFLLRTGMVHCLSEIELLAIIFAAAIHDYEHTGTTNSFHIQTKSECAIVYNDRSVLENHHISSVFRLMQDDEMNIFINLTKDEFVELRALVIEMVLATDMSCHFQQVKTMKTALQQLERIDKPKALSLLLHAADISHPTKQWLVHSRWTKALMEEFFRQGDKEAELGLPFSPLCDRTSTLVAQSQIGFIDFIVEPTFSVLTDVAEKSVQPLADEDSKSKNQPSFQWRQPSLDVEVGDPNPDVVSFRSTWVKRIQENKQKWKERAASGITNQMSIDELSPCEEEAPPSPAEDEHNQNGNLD
T1 sequence (P54750 whole entry): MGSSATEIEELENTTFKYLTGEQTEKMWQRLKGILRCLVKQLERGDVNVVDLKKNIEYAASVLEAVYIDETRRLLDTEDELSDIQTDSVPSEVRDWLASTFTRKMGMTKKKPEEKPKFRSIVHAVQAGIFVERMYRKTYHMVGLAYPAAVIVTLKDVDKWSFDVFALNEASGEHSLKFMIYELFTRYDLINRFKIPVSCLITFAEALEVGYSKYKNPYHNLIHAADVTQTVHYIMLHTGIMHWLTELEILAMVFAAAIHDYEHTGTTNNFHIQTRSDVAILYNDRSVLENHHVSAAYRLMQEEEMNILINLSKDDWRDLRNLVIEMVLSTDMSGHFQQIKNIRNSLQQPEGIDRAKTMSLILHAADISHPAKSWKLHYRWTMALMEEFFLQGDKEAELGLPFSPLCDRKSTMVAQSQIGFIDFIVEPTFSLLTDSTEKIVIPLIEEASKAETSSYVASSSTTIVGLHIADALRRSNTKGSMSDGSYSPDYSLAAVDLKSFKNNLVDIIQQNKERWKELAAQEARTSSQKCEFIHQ

`COc1ccnc(CN2CC(C)C(c3nn4c(C5CCOCC5)ncc4c(=O)[nH]3)C2)c1` (single isomer, unassigned; (+)) [(+)-2-((3,4-trans)-1-((4-methoxypyridin-2-yl)methyl)-4-methylpyrrolidin-3-yl)-7-(tetrahydro-2H-pyran-4-yl)imidazo[5,1-f][1,2,4]triazin-4(3H)-one]: in assay [1] (setting [4]), the “PDE1A selectivity (versus PDE9A2)” value is 466. Further, the “PDE1B selectivity (versus PDE9A2)” value in assay [2] (setting [5]) was determined as 456. Moreover, the half-maximal inhibitory concentration (IC50) in assay [3] (setting [6]) is < 1 µM.

As to `CC1CN(Cc2ccc(Cl)cn2)CC1c1nn2c(C3CCOCC3)ncc2c(=O)[nH]1` (single isomer, unassigned; (+)) [(+)-2-((3,4-trans)-1-((5-chloropyridin-2-yl)methyl)-4-methylpyrrolidin-3-yl)-7-(tetrahydro-2H-pyran-4-yl)imidazo[5,1-f][1,2,4]triazin-4(3H)-one], in assay [1] (setting [7]), the “PDE1A selectivity (versus PDE9A2)” value was 107. In addition, the “PDE1B selectivity (versus PDE9A2)” value in assay [2] (setting [8]) came to 184. In addition, in assay [3] (setting [9]), the 50% inhibitory concentration (IC50) was < 1 µM.

Regarding `CC1CN(Cc2ncc(Cl)cn2)CC1c1nn2c(C3CCOCC3)ncc2c(=O)[nH]1` (single isomer, unassigned; (+)) [(+)-2-((3,4-trans)-1-((5-chloropyrimidin-2-yl)methyl)-4-methylpyrrolidin-3-yl)-7-(tetrahydro-2H-pyran-4-yl)imidazo[5,1-f][1,2,4]triazin-4(3H)-one], the “PDE1A selectivity (versus PDE9A2)” value in assay [1] (setting [10]) was 95. Besides, the “PDE1B selectivity (versus PDE9A2)” value in assay [2] (setting [10]) came out at 154. Besides, the IC50 in assay [3] (setting [11]) is < 1 µM.

Take `CC1CN(Cc2ncc(C3CC3)cn2)CC1c1nn2c(C3CCOCC3)ncc2c(=O)[nH]1` (single isomer, unassigned; (+)) [(+)-2-((3,4-trans)-1-((5-cyclopropylpyrimidin-2-yl)methyl)-4-methylpyrrolidin-3-yl)-7-(tetrahydro-2H-pyran-4-yl)imidazo[5,1-f][1,2,4]triazin-4(3H)-one]: in assay [1] (setting [10]), the “PDE1A selectivity (versus PDE9A2)” value was 151. Also, the “PDE1B selectivity (versus PDE9A2)” value in assay [2] (setting [10]) is on record as 670. For the same compound, the IC50 in assay [3] (setting [11]) is < 1 µM.

As to `CC1CN(Cc2ccc(F)cn2)CC1c1nn2c(C3CCOCC3)ncc2c(=O)[nH]1` (single isomer, unassigned; (+)) [(+)-2-((3,4-trans)-1-((5-fluoropyridin-2-yl)methyl)-4-methylpyrrolidin-3-yl)-7-(tetrahydro-2H-pyran-4-yl)imidazo[5,1-f][1,2,4]triazin-4(3H)-one], the “PDE1A selectivity (versus PDE9A2)” value in assay [1] (setting [4]) was 273. Moreover, in assay [2] (setting [5]), the “PDE1B selectivity (versus PDE9A2)” value is on record as 377. Moreover, the 50% inhibitory concentration (IC50) in assay [3] (setting [6]) is < 1 µM.

`CC1CN(Cc2ncc(F)cn2)CC1c1nn2c(C3CCOCC3)ncc2c(=O)[nH]1` (single isomer, unassigned; (+)) [(+)-2-((3,4-trans)-1-((5-fluoropyrimidin-2-yl)methyl)-4-methylpyrrolidin-3-yl)-7-(tetrahydro-2H-pyran-4-yl)imidazo[5,1-f][1,2,4]triazin-4(3H)-one]: the “PDE1A selectivity (versus PDE9A2)” value in assay [1] (setting [10]) worked out at 133. In assay [2] (setting [10]), the “PDE1B selectivity (versus PDE9A2)” value was 279. In assay [3] (setting [11]), the IC50 was < 1 µM.

Regarding `COc1ccc(CN2CC(C)C(c3nn4c(C5CCOCC5)ncc4c(=O)[nH]3)C2)nc1` (single isomer, unassigned; (+)) [(+)-2-((3,4-trans)-1-((5-methoxypyridin-2-yl)methyl)-4-methylpyrrolidin-3-yl)-7-(tetrahydro-2H-pyran-4-yl)imidazo[5,1-f][1,2,4]triazin-4(3H)-one], in assay [1] (setting [12]), the “PDE1A selectivity (versus PDE9A2)” value worked out at 216. For the same compound, the “PDE1B selectivity (versus PDE9A2)” value in assay [2] (setting [12]) was 540. For the same compound, the IC50 in assay [3] (read-out: Band (PDE9A2 IC50)) is < 1 µM.

As to `COc1cncc(CN2CC(C)C(c3nn4c(C5CCOCC5)ncc4c(=O)[nH]3)C2)c1` (single isomer, unassigned; (+)) [(+)-2-((3,4-trans)-1-((5-methoxypyridin-3-yl)methyl)-4-methylpyrrolidin-3-yl)-7-(tetrahydro-2H-pyran-4-yl)imidazo[5,1-f][1,2,4]triazin-4(3H)-one], in assay [1] (setting [7]), the “PDE1A selectivity (versus PDE9A2)” value stood at 1060. The “PDE1B selectivity (versus PDE9A2)” value in assay [2] (setting [8]) is reported as 1780. In assay [3] (setting [9]), the IC50 was < 1 µM.

Take `COc1cnc(CN2CC(C)C(c3nn4c(C5CCOCC5)ncc4c(=O)[nH]3)C2)nc1` (single isomer, unassigned; (+)) [(+)-2-((3,4-trans)-1-((5-methoxypyrimidin-2-yl)methyl)-4-methylpyrrolidin-3-yl)-7-(tetrahydro-2H-pyran-4-yl)imidazo[5,1-f][1,2,4]triazin-4(3H)-one]: the “PDE1A selectivity (versus PDE9A2)” value in assay [1] (setting [10]) is given as 26. The “PDE1B selectivity (versus PDE9A2)” value in assay [2] (setting [10]) turned out to be 64. For the same compound, in assay [3] (setting [11]), the IC50 was < 1 µM.

On to `COc1cccc(CN2CC(C)C(c3nn4c(C5CCOCC5)ncc4c(=O)[nH]3)C2)n1` (single isomer, unassigned; (+)) [(+)-2-((3,4-trans)-1-((6-methoxypyridin-2-yl)methyl)-4-methylpyrrolidin-3-yl)-7-(tetrahydro-2H-pyran-4-yl)imidazo[5,1-f][1,2,4]triazin-4(3H)-one], for which, in assay [1] (setting [13]), the “PDE1A selectivity (versus PDE9A2)” value was 579. Also, the “PDE1B selectivity (versus PDE9A2)” value in assay [2] (setting [13]) came to 571. Besides, the IC50 in assay [3] (setting [14]) is < 1 µM.

For the compound `CC1CN(Cc2ccc3cccc(F)c3n2)CC1c1nn2c(C3CCOCC3)ncc2c(=O)[nH]1` (single isomer, unassigned; (+)) [(+)-2-((3,4-trans)-1-((8-fluoroquinolin-2-yl)methyl)-4-methylpyrrolidin-3-yl)-7-(tetrahydro-2H-pyran-4-yl)imidazo[5,1-f][1,2,4]triazin-4(3H)-one], the “PDE1A selectivity (versus PDE9A2)” value in assay [1] (setting [4]) is given as 39. Besides, in assay [2] (setting [5]), the “PDE1B selectivity (versus PDE9A2)” value is reported as 76. For the same compound, the IC50 in assay [3] (setting [6]) is < 1 µM.

In the case of `CC1CN(Cc2nc3ccccn3n2)CC1c1nn2c(-c3cccc(F)c3)ncc2c(=O)[nH]1` (single isomer, unassigned; (+)) [(+)-2-((3,4-trans)-1-([1,2,4]triazolo[1,5-a]pyridin-2-ylmethyl)-4-methylpyrrolidin-3-yl)-7-(3-fluorophenyl)imidazo[5,1-f][1,2,4]triazin-4(3H)-one], in assay [1] (setting [15]), the “PDE1A selectivity (versus PDE9A2)” value is on record as 3. Further, the “PDE1B selectivity (versus PDE9A2)” value in assay [2] (setting [16]) is recorded as 10. Besides, the IC50 in assay [3] (read-out: Band (PDE9A2 IC50)) was < 1 µM.

In the case of `CC1CN(Cc2nc3ccccn3n2)CC1c1nn2c(C3CCC(F)(F)CC3)ncc2c(=O)[nH]1` (single isomer, unassigned; (+)) [(+)-2-((3,4-trans)-1-([1,2,4]triazolo[1,5-a]pyridin-2-ylmethyl)-4-methylpyrrolidin-3-yl)-7-(4,4-difluorocyclohexyl)imidazo[5,1-f][1,2,4]triazin-4(3H)-one], the “PDE1A selectivity (versus PDE9A2)” value in assay [1] (setting [13]) came out at 597. In assay [2] (setting [13]), the “PDE1B selectivity (versus PDE9A2)” value is listed as 1847. Moreover, the IC50 in assay [3] (setting [14]) is < 1 µM.

Consider `Cc1cc(F)c(F)cc1-c1ncc2c(=O)[nH]c(C3CN(Cc4nc5ccccn5n4)CC3C)nn12` (single isomer, unassigned; (+)) [(+)-2-((3,4-trans)-1-([1,2,4]triazolo[1,5-a]pyridin-2-ylmethyl)-4-methylpyrrolidin-3-yl)-7-(4,5-difluoro-2-methylphenyl)imidazo[5,1-f][1,2,4]triazin-4(3H)-one], for which the “PDE1A selectivity (versus PDE9A2)” value in assay [1] (setting [15]) turned out to be 1000. In addition, the “PDE1B selectivity (versus PDE9A2)” value in assay [2] (setting [16]) turned out to be 2140. The IC50 in assay [3] (read-out: Band (PDE9A2 IC50)) was < 1 µM.

Turning to `Cc1cc(F)ccc1-c1ncc2c(=O)[nH]c(C3CN(Cc4nc5ccccn5n4)CC3C)nn12` (single isomer, unassigned; (+)) [(+)-2-((3,4-trans)-1-([1,2,4]triazolo[1,5-a]pyridin-2-ylmethyl)-4-methylpyrrolidin-3-yl)-7-(4-fluoro-2-methylphenyl)imidazo[5,1-f][1,2,4]triazin-4(3H)-one], the “PDE1A selectivity (versus PDE9A2)” value in assay [1] (ratio of IC50 values PDE1A vs PDE9A2, value greater than 1 indicates greater selectivity for PDE9A2) was determined as 215. For the same compound, the “PDE1B selectivity (versus PDE9A2)” value in assay [2] (ratio of IC50 values PDE1B vs PDE9A2, value greater than 1 indicates greater selectivity for PDE9A2) is 473. Besides, in assay [3] (IC50 band, 4.0 μM cGMP substrate, 1 hour at R.T.), the IC50 was < 1 µM.

Turning to `CC1CN(Cc2nc3ccccn3n2)CC1c1nn2c(-c3ccc(F)cc3)ncc2c(=O)[nH]1` (single isomer, unassigned; (+)) [(+)-2-((3,4-trans)-1-([1,2,4]triazolo[1,5-a]pyridin-2-ylmethyl)-4-methylpyrrolidin-3-yl)-7-(4-fluorophenyl)imidazo[5,1-f][1,2,4]triazin-4(3H)-one], the “PDE1A selectivity (versus PDE9A2)” value in assay [1] (setting [15]) is listed as 87. In assay [2] (setting [16]), the “PDE1B selectivity (versus PDE9A2)” value was determined as 87. Moreover, the IC50 in assay [3] (read-out: Band (PDE9A2 IC50)) was < 1 µM.

`Cc1ccncc1-c1ncc2c(=O)[nH]c(C3CN(Cc4nc5ccccn5n4)CC3C)nn12` (single isomer, unassigned; (+)) [(+)-2-((3,4-trans)-1-([1,2,4]triazolo[1,5-a]pyridin-2-ylmethyl)-4-methylpyrrolidin-3-yl)-7-(4-methylpyridin-3-yl)imidazo[5,1-f][1,2,4]triazin-4(3H)-one]: the “PDE1A selectivity (versus PDE9A2)” value in assay [1] (setting [15]) worked out at 56. Also, the “PDE1B selectivity (versus PDE9A2)” value in assay [2] (setting [16]) worked out at 115. For the same compound, the IC50 in assay [3] (read-out: Band (PDE9A2 IC50)) is < 1 µM.

As usually defined, the IC50 is the concentration that gives 50% inhibition.
